Activity calls are given as the source filed them. No cut-off for these calls is given here.
Tests used:
[1] = target: T1, Mitogen-activated protein kinase kinase kinase 5 (Homo sapiens) (UniProt Q99683); test: Inhibition of MAP3K5 Lys1 labeling site harbouring IAIKEIPERDSR in human A-375 cells at 0.05 uM by KiNativ Profiling analysis relative to control; format: cell-based
T1 sequence (whole entry): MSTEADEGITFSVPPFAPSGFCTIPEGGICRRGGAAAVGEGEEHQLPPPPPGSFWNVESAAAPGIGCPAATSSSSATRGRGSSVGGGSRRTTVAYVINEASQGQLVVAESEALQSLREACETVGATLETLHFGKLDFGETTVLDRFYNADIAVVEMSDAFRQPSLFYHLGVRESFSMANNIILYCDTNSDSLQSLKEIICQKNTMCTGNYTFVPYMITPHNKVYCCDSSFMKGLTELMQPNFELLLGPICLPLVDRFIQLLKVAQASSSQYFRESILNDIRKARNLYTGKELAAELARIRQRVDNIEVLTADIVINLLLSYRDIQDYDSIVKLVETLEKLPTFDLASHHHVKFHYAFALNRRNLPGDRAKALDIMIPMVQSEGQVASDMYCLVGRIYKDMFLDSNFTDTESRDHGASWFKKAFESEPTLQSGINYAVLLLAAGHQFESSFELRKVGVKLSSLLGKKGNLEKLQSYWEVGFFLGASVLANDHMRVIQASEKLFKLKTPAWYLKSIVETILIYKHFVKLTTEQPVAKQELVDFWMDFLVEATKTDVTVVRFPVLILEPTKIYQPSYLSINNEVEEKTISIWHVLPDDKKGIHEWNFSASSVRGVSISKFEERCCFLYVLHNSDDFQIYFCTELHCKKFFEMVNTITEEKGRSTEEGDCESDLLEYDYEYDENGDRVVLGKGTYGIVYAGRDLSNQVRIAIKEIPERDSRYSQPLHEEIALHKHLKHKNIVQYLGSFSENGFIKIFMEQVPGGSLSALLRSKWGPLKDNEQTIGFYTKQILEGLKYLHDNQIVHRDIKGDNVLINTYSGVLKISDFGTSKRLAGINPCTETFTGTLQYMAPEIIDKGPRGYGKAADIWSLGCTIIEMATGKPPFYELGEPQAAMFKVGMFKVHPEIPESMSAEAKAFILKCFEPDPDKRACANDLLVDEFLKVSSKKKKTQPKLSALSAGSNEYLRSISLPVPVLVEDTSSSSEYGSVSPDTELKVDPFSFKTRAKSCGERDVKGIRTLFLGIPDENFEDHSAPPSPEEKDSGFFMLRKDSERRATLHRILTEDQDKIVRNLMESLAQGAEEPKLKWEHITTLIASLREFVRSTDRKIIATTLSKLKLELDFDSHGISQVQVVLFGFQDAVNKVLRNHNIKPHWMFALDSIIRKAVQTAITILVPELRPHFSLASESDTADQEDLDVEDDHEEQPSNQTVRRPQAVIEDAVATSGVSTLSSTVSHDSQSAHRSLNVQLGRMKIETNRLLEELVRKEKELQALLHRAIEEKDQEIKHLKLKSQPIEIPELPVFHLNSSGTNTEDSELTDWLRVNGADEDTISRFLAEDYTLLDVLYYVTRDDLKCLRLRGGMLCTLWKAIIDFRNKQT

[2] = target: Serine/threonine-protein kinase PLK1 (Homo sapiens) (UniProt P53350); test: Inhibition of PLK1 (unknown origin) at 10 uM by Ambit Kinomescan binding assay
[3] = target: Serine/threonine-protein kinase 38-like (Homo sapiens) (UniProt Q9Y2H1); test: Inhibition of NDR2 Lys1 labeling site harbouring KDTGHIYAMKILR in human A-375 cells at 0.5 uM by KiNativ Profiling analysis relative to control; format: cell-based
[4] = target: Serine/threonine-protein kinase 4 (Homo sapiens) (UniProt Q13043); test: Inhibition of MST1 Lys2 labeling site harbouring DIKAGNILLNTEGHAK in human A-375 cells at 0.5 uM by KiNativ Profiling analysis relative to control
[5] = target: T2, Eukaryotic elongation factor 2 kinase (Homo sapiens) (UniProt O00418); test: Inhibition of eEF2K ATP labeling site harbouring YIKYNSNSGFVR in human A-375 cells at 0.5 uM by KiNativ Profiling analysis relative to control; format: cell-based
T2 sequence (whole entry): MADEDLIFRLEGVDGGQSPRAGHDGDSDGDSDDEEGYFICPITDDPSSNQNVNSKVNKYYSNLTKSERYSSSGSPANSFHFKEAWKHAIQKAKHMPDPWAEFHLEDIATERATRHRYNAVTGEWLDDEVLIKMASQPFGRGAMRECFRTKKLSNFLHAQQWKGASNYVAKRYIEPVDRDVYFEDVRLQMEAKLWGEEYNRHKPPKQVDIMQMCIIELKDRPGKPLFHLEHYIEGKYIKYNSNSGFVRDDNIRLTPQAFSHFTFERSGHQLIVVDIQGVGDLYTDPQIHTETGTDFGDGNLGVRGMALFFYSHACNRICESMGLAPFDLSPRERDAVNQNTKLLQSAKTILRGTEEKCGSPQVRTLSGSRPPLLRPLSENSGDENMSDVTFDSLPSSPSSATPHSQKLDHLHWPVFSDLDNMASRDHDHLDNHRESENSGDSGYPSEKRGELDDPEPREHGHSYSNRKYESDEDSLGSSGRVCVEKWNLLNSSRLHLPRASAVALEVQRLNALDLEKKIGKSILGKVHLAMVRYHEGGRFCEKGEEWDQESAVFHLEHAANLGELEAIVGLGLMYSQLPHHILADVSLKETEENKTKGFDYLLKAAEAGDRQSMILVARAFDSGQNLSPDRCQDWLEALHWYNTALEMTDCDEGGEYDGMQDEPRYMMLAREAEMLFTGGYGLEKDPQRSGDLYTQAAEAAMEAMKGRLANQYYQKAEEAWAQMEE

[6] = target: T3, Scaffold protein ILK (Homo sapiens) (UniProt Q13418); test: Inhibition of ILK Lys1 labeling site in human Huh-7 cells at 1 uM by KiNativ Profiling analysis relative to control; format: cell-based
T3 sequence (whole entry): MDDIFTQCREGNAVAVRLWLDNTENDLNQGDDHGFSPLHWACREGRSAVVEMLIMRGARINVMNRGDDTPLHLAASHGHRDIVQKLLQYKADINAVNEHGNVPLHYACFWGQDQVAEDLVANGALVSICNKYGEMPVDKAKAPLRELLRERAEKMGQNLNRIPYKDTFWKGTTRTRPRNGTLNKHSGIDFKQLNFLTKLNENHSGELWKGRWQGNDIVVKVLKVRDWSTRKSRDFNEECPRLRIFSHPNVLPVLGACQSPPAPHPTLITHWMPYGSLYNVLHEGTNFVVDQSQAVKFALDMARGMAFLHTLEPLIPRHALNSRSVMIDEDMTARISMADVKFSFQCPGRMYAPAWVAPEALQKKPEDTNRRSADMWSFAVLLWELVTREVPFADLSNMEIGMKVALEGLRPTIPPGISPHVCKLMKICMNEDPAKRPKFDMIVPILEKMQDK

Serine/threonine-protein kinase 38-like (Homo sapiens), sequence (Q9Y2H1 2-464 limits assumed): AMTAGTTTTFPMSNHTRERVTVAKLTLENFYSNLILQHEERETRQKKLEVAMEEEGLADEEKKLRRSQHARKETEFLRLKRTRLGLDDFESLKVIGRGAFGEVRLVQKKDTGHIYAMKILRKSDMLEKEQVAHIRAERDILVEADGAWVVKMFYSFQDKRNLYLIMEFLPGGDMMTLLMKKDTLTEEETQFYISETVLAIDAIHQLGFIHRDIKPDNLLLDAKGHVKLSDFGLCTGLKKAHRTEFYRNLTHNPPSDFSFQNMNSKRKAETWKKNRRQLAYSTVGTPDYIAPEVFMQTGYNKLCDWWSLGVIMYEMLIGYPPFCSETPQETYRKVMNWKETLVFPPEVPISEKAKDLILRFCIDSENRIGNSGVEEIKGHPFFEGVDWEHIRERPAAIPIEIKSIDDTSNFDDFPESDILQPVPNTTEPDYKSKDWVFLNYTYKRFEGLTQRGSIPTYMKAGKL
Serine/threonine-protein kinase PLK1 (Homo sapiens), sequence (P53350 whole entry): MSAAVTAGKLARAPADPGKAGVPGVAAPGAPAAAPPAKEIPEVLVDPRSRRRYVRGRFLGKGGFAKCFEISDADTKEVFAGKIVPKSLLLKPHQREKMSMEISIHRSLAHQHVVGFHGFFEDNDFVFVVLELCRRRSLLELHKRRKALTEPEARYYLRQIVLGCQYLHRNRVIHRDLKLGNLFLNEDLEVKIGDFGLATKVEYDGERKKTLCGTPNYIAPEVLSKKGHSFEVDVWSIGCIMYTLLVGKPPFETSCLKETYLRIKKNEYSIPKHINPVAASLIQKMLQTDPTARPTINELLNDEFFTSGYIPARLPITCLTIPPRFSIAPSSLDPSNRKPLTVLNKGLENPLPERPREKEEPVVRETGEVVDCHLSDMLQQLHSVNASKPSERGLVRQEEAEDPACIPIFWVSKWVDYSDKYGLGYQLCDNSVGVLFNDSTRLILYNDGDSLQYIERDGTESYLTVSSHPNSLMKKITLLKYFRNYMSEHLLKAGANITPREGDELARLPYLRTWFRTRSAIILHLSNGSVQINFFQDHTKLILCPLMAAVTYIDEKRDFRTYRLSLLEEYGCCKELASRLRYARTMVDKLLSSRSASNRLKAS
Serine/threonine-protein kinase 4 (Homo sapiens), sequence (Q13043 whole entry, looked up): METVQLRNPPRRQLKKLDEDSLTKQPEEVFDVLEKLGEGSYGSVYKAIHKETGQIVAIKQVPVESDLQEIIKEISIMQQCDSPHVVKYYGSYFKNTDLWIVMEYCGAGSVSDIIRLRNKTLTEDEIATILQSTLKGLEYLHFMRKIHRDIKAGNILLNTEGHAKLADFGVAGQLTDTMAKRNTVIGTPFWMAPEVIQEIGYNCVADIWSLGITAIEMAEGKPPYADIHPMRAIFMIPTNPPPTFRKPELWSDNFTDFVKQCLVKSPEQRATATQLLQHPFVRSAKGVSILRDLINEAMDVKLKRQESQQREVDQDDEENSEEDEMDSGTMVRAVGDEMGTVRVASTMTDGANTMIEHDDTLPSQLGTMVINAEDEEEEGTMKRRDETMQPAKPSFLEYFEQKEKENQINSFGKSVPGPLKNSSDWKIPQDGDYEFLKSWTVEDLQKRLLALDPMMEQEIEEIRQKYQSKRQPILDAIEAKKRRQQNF

CCN1CCN(Cc2ccc(NC(=O)c3ccc(C)c(Oc4ccnc5[nH]ccc45)c3)cc2C(F)(F)F)CC1
inhibition [1]: -3.3% | inhibition [2]: inactive | inhibition [3]: 31.6%

CCN1CCN(Cc2ccc(NC(=O)c3ccc(C)c(/C=C/c4cnc5[nH]ccc5c4OC)c3)cc2C(F)(F)F)CC1
inhibition [4]: -9.8% | inhibition [5]: -8.5%

CNc1cc(Oc2cc(C(=O)Nc3cc(N4CCN(C)CC4)cc(C(F)(F)F)c3)ccc2C)ncn1
inhibition [6]: -6.7%
